Source: patent publication US20110268722A1, “COMBINATION THERAPIES WITH MITOCHONDRIAL-TARGETED ANTI-TUMOR AGENTS” (priority 2010, published 2011)
Where a SMILES comes first, the peptide text is derived from it. The star is where a group is joined. Cbz = O=C(OCc1ccccc1)*; CH2F = FC*

How the values were obtained:
[1] = test system: U251 cells; test: Annexin V / propidium iodide flow cytometry; format: cell-based, human; conditions: 5 μM TPP-GA, 25 ng/ml TRAIL, alone or combined
[2] = test system: LN229 cells; test: Western blotting of caspase, BID and PARP cleavage; format: cell-based, human; conditions: 5 μM TPP-GA, 200 ng/ml TRAIL, alone or combined, 16 hours
Experimental: (§1) Western blotting was employed to elucidate the proteolytic mechanism in TRAIL and TRAIL+Gamitrinib-induced apoptosis. Since Gamitrinibs augment TRAIL-induced apoptosis, the activation/cleavage of caspases-3, -7, -8, -9, BH3 interacting domain death agonist (BID), and Poly-ADP-ribose polymerase (PARP) was examined. […] The time course of activation/cleavage of caspases-3, -7, -8, -9, BID, and PARP over 24 hours was also examined following treatment of LN229 (FIG. 3C) or U251 (FIG. 3D) cells with 5 μM TPP-GA and 200 or 20 ng/ml TRAIL, respectively.

[3] = test system: U251 cells; test: Western blotting of caspase, BID and PARP cleavage; format: cell-based, human; conditions: 5 μM TPP-GA, 20 ng/ml TRAIL, alone or combined, 16 hours
Experimental: as §1

[4] = test system: U87-luc glioblastoma cells; test: Orthotopic glioblastoma tumor model, bioluminescence imaging; format: in vivo; conditions: CB17 SCID/beige mice; TRAIL 2 μg intracranially, TPP intraperitoneally
Experimental: Since Gamitrinib-TPP dramatically sensitizes cancer cells in vitro it was of highest interest to assess efficacy in vivo. To this end, efficacy of TRAIL, TPP, or the combination of both was determined in an orthotopic glioblastoma tumor model. Twenty nude mice were intracranially injected with U87-luc glioblastoma cells. U87 glioblastoma cells stably transfected with a luciferase expression plasmid (U87-Luc) were suspended in sterile PBS, pH 7.2, and stereotactically implanted (1×10^5) in the right cerebral striatum of immunocompromised CB17 SCID/beige female mice (Charles River Laboratories). Treatment group 1 received only vehicle solutions. Group 2 received TRAIL intracranially (2 μg) and carrier solution intraperitoneally. Group 3 received PBS intracranially and TPP intraperitoneally in a carrier solution consisting of 20% Cremophor in PBS. Group 4 received both TRAIL and TPP. Tumor growth was assessed after each intracranial injection by application of 58 mg/kg D-luciferin and subsequent bioluminescence imaging using a Xenogen In Vivo Imaging System. […]
Five days after injection of U87-luc glioblastoma cells, the mice were scanned, quantified and according to signal strength randomized into 4 treatment groups (Group 1: Vehicle, Group 2: TRAIL, Group 3: TPP, Group 4: TRAIL+TPP) (FIGS. 5A, 6A).

[5] = test system: LN229 cells; test: Electron microscopy of treated cells; format: cell-based, human; conditions: 5-10 μM, 16 hours
Experimental: Subconfluent monolayers of LN229 cells were incubated with PBS, pH 7.2, or G-TPP or nontargeted 17-AAG (5-10 μM) for 16 hours at 37° C. Cells were washed briefly in 0.1 M PBS, pH 7.4, fixed in buffered 2.5% glutaraldehyde (GA) with or without 4% formaldehyde (FA) or for 30 minutes at 22° C., post-fixed in 1% osmium tetroxide, and processed by standard methods for epoxy embedding. In some experiments, cells were fixed in buffered 3% FA with 0.1% GA for 25 minutes at 22° C., washed, quenched with NH4Cl, and dehydrated for embedding in LR White resin. Ultrathin sections on nickel grids were treated for heat-induced antigen retrieval and blocked with buffered 1% BSA, as described in published protocols (Yamashita et al., Methods Mol. Biol. 657:237-248, 2010). Samples were incubated with an antibody to COX IV, followed by a colloidal gold-conjugated (12 nm) secondary antibody of appropriate specificity (Jackson ImmunoResearch). Grids were briefly post-fixed with 2% GA, washed, air dried, and then exposed to osmium tetroxide vapors for 20 minutes. Ultrathin sections were stained with uranyl acetate and lead citrate before examination in a Philips CM10 transmission electron microscope.

[6] = test system: U87 cells; test: LC3 immunoblot (autophagy); format: cell-based, human; conditions: over time
Experimental: FIG. 10A is an immunoblot of lysates from U87 cells following treatment with G-TPP for the indicated periods of time. The position of the unmodified (I) and lipidated form (II) form of LC3 are indicated.
(§2) The various cell types were seeded in triplicate onto 96-well plates at 2×10^3 cells/well, treated with vehicle, G-TPP, or nontargeted 17-AAG (0-20 μM) for up to 24 hours, and quantified for metabolic activity by a 3(4,5-dimethyl-thyazoyl-2-yl)2,5 diphenyltetrazolium bromide (MTT) colorimetric assay with absorbance at 405 nm, as described in Plescia et al. (Cancer Cell 7:457-468, 2005). Changes in protein expression under the various combination regimens were determined by immunoblotting.

[7] = test system: U251 cells; test: LC3-GFP fluorescence microscopy (autophagy); format: cell-based, human; conditions: 16 hours
Experimental: FIG. 10B is a fluorescence photomicrograph and a graph of the percentage of fluorescent U251 cells following transfection of U251 cells with LC3-GFP and treatment for 16 hours with vehicle (left photomicrograph) or G-TPP (right photomicrograph).
(§3) For autophagy, glioblastoma cells were transfected with an LC3-GFP cDNA by FuGENE HD (Roche), treated with vehicle, nontargeted 17-AAG, or G-TPP, and analyzed by fluorescence microscopy. […] An average of 200 cells was counted in 4-6 independent fields per condition. In some experiments, G-TPP-treated cells were incubated with pharmacologic inhibitors of autophagy, BF, or 3-MA, and analyzed after 16 hours for modulation of cell viability by MTT.

[8] = test system: NF-κB promoter in U251 cells; test: NF-κB luciferase promoter activity; format: cell-based, human; conditions: U251, luciferase normalized to β-galactosidase
Experimental: FIG. 12A is a graph showing the relative light units (RLU) of U251 cells from luciferase produced from a NF-κB promoter following no treatment or treatment with G-TPP or TRAIL. The luciferase data are normalized to β-galactosidase. TRAIL (800 ng/mL) was used as a control. The mean data±standard deviation are shown.
FIG. 12B is a graph showing the RLU of U251 cells from luciferase produced from a NF-κB promoter following no treatment or treatment with G-TPP in the presence or absence of TNF-α. The luciferase data are normalized to β-galactosidase. The mean data±standard deviation are shown.
(§4) FIG. 14B is a graph showing the RLU of U251 cells from luciferase produced from a NF-κB or cFLIP promoter following treatment with non-targeted 17-AAG. Cells were analyzed after 9 hours for luciferase activity. The mean data±SEM of replicates of a representative experiment are shown.
(§5) Tumor cell types were transfected with NF-κB (Mehrota et al., Cancer Cell 17:53-64, 2010), p53, or FLIP luciferase promoter construct (pGL3-FLIP1500; Addgene #16016) using FuGENE HD. After 24 hours at 37° C., cells were stimulated with G-TPP or 17-AAG (0-10 μM) for 6 hours, harvested, and analyzed for β-galactosidase-normalized luciferase activity in a luminometer, as described (Mehrota et al., Cancer Cell 17:53-64, 2010). In some experiments, β-galactosidase-normalized NF-κB promoter activity was examined after cell stimulation with TNF-α, as described (Mehrota et al., Cancer Cell 17:53-64, 2010).

[9] = test system: FLIP promoter in U251 cells; test: FLIP luciferase promoter activity; format: cell-based, human
Experimental: FIG. 13A is a graph showing the RLU of U251 cells from luciferase produced from a FLIP promoter following no treatment or treatment with two different concentrations of G-TPP. The luciferase data are normalized to β-galactosidase. The mean data±standard deviation are shown.
as §4, §5

[10] = test system: FLIP in LN229 cells; test: FLIP protein immunoblot; format: cell-based, human
Experimental: FIG. 13B is two immunoblots lysate from LN229 cells following treatment with G-TPP. The top immunoblot is a dose response experiment. The bottom immunoblot is a time-course experiment. FLIP (L) is the FLIP long form. FLIP(S) is the FLIP short form.
as §2

[11] = test system: RelB, Bcl-3 mRNA in LN229 cells; test: RelB and Bcl-3 mRNA expression; format: cell-based, human
Excerpt: FIG. 13C is a Northern blot showing the PCR-amplified expression of RelB, Bcl-3, and GAPDH mRNA in LN229 cells following treatment with G-TPP.

[12] = test system: p53 promoter in MCF-7 cells; test: p53 luciferase promoter activity; format: cell-based, human; conditions: MCF-7, after 5 hours
Experimental: FIG. 14A is a graph showing the RLU of MCF-7 cells from luciferase produced from a p53 promoter following no treatment or treatment with G-TPP, Eto 10, Eto 10 and G-TPP, Eto 20, and Eto 20 and G-TPP. Cells were analyzed after 5 hours for β-galactosidase-normalized p53 luciferase promoter activity.
as §5

[13] = test system: cancer cells; test: Pan-caspase inhibitor effect on TRAIL+Gamitrinib apoptosis and caspase cleavage; format: cell-based
Experimental: as §1

[14] = test system: U87 cells; test: MTT viability with inhibitors of phagosome formation plus G-TPP; format: cell-based, human; conditions: inhibitor 1 hour then G-TPP, MTT after 16 hours
Experimental: FIG. 11A is a graph of the percent viability of U87 cells following incubation with inhibitors of phagosome formation, bafilomycin A (BF) or 3-methyladenine (3-MA), for 1 hour and treatment with G-TPP. MTT analysis was performed after 16 hours with MTT. The mean data±standard deviation are shown.
as §3

Row | Molecule | Annexin V positive and PI-negative tumor cells (apoptosis) [1] | cleavage of caspase-3 or -7 [2] | cleavage of caspase-3 or -7 [3] | tumor size (bioluminescence) [4] | cell ultrastructure (electron microscopy) [5] | NF-κB-mediated gene expression, constitutive [8] | FLIP promoter activity [9] | glioblastoma cell death induced by suboptimal concentrations of G-TPP (MTT) [14] | other results
1 | CO[C@H]1/C=C\C=C(/C)C(=O)NC2=CC(=O)C(NCCCCCC[P+](c3ccccc3)(c3ccccc3)c3ccccc3)=C(C[C@@H](C)C[C@H](OC)[C@H](O)[C@@H](C)/C=C(\C)[C@@H]1OC(N)=O)C2=O [Gamitrinib-TPP, triphenylphosphonium geldanamycin] | no significant effects | did not or only weakly induce cleavage of caspase-3 or -7 | did not or only weakly induce cleavage of caspase-3 or -7 | did not show any significant reduction in tumor size | became completely filled with cytoplasmic vacuoles | complete ablation | rapid downregulation | – | LC3 lipidated form (immunoblot) [6]: accumulated a lapidated form of the ubiquitin-like protein, light chain 3 (LC3); LC3-GFP fluorescence pattern [7]: exhibited a punctate fluorescence pattern; NF-κB-mediated gene expression after stimulation with TNF-α [8]: complete ablation; FLIP protein expression [10]: rapid downregulation; RelB and bcl-3 mRNA [11]: rapid downregulation; etoposide-mediated induction of p53 luciferase promoter activity [12]: unaffected
2 | COC(=O)CC(NC(=O)C(C)NC(=O)C(NC(=O)OCc1ccccc1)C(C)C)C(=O)CF (stereo not drawn) [zVAD-fmk, benzyloxycarbonyl-Val-Ala-Asp(OMe)-fluoromethyl-ketone] (Cbz-Val-Ala-Asp(OMe)-CH2F; configuration not given here) | – | – | – | – | – | – | – | – | effect on cleavage of caspases induced by the combination of TRAIL and TPP-GA ([13]; Western blotting): abolished cleavage of caspases; effect on TRAIL+Gamitrinib mediated apoptosis ([13]; pan-caspase inhibitor added to the combination): significantly attenuated
3 | TRAIL: Recombinant TRAIL obtained from Peprotech; death receptor agonist | no significant effects | did not or only weakly induce cleavage of caspase-3 or -7 | did not or only weakly induce cleavage of caspase-3 or -7 | did not show any significant reduction in tumor size | – | – | – | – | –
4 | Cn1cnc(N)c2ncnc1-2 [3-methyladenine] | – | – | – | – | – | – | – | enhanced glioblastoma cell death | –
5 | CO/C1=C\C(C)=C\[C@@H](C)[C@@H](O)[C@@H](C)C/C(C)=C/C=C/[C@H](OC)[C@@H]([C@@H](C)[C@@H](O)[C@H](C)[C@@]2(O)C[C@@H](O)[C@H](C)[C@@H](C(C)C)O2)OC1=O [bafilomycin A] | – | – | – | – | – | – | – | enhanced glioblastoma cell death | –
6 | C=CCNC1=C2C[C@@H](C)C[C@H](OC)[C@H](O)[C@@H](C)/C=C(\C)[C@H](OC(N)=O)[C@@H](OC)/C=C\C=C(/C)C(=O)NC(=CC1=O)C2=O [Gamitrinib 17-AAG, 17-allylamino demethoxygeldanamycin, reference compound] | – | – | – | – | unremarkable | no effect | no effect | – | –
